Results on 20 compounds are retold here after US7674819B2 (Warner-Lambert Company LLC, priority 2005, dated 2010).

The target of one assay is T1, hAR (Homo sapiens, UniProt P10275).
T1 sequence (P10275 1-920): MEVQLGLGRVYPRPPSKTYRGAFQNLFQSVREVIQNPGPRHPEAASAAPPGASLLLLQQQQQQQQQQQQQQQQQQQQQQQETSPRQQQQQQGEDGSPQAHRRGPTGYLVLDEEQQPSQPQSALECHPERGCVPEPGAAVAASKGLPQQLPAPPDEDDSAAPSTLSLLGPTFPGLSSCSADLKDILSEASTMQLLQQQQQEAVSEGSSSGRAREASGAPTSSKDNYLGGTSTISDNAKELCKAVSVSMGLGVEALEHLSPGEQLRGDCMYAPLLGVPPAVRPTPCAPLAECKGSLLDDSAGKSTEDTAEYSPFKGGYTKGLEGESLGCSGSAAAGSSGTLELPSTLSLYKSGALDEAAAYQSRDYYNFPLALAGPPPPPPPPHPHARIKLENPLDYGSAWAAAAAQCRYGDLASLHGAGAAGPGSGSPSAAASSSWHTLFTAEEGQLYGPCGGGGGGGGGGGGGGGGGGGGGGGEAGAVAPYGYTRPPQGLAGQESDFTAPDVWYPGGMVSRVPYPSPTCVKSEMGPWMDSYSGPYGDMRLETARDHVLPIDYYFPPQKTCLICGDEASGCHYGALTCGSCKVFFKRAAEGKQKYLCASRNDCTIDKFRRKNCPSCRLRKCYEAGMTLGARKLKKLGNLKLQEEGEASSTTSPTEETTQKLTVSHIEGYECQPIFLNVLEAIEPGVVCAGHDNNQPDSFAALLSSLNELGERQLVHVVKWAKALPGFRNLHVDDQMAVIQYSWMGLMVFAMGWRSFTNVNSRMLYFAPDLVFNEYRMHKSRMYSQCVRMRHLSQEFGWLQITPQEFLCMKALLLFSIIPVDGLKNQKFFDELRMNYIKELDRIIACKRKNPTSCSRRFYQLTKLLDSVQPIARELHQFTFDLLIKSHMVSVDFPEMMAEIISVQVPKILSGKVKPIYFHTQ
In words: Competitive binding of 3H-DHT to baculovirus/Sf9 generated hAR extracts. To be noted: one hour at 4° C., mean of multiple tests. The gist of the method: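 Baculovirus/Sf9-expressed hAR extract incubated with test compound, hydroxylapatite and 1 nM 3H-DHT tracer for 1 h at 4° C, then washed free of unbound tracer. Affinity given as concentration inhibiting half of maximal 3H-DHT binding.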

The target in the next assay is T2, androgen receptor (Homo sapiens, UniProt P10275).
T2 sequence (P10275 1-920 Q868H): T1 sequence (P10275 1-920) with Q868H
Briefly: AR Antagonist Cell Assay (MDA-MB453-MMTV clone 54-19, luciferase reporter). Format: cell-based. Particulars: inhibition of induction by DHT (final concentration at 100 μM), 17 hr, compound 0.32-1000 nM, mean of multiple tests. The gist of the method:
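MDA-MB453 breast tumour cells stably carrying an ARE-containing MMTV promoter driving firefly luciferase, plated overnight at 37° C in charcoal-treated serum medium. DHT added (final […]) and incubated 17 hr at 37° C. Luminescence read after adding luciferase buffer; values are means of multiple tests.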

Setting [1] is: concentration at which one half of maximum binding of 1 nM 3H-DHT to hAR is inhibited, read-out: IC50.
The mark [2] stands for this setting: IC50, concentration at which one half of maximum binding of 1 nM 3H-DHT to hAR is inhibited.

Where a chain is given by its changes, count along the chain named. Like-named read-outs stand apart in the source and are kept apart here.

As to `COc1cccc(S(=O)(=O)N2CC(C)(C)C(Oc3ccc(C#N)c(C(F)(F)F)c3)C2=O)c1` (stereo not shown) [Example 74, 4-[1-(3-Methoxy-benzenesulfonyl)-4,4-dimethyl-2-oxo-pyrrolidin-3-yloxy]-2-trifluoromethyl-benzonitrile], the IC50 came to 106 nM on hAR (setting [1]) and 96 nM against androgen receptor.
For the compound `CCCS(=O)(=O)N1CC(C)(C)C(Oc2ccc(C#N)c(C(F)(F)F)c2)C1=O` (stereo not shown) [Example 75, 4-[4,4-Dimethyl-2-oxo-1-(propane-1-sulfonyl)-pyrrolidin-3-yloxy]-2-trifluoromethyl-benzonitrile], the IC50 at hAR (setting [2]) turned out to be 64 nM; on androgen receptor, 16 nM.
For `CCS(=O)(=O)N1CC(C)(C)C(Oc2ccc(C#N)c(C(F)(F)F)c2)C1=O` (stereo not shown) [Example 78, 4-(1-Ethanesulfonyl-4,4-dimethyl-2-oxo-pyrrolidin-3-yloxy)-2-trifluoromethyl-benzonitrile], the IC50 on hAR (setting [1]) was determined as 103 nM; at androgen receptor (read-out: IC50) it was 246 nM.
Consider `CC1(C)CN(S(=O)(=O)C2CC2)C(=O)C1Oc1ccc(C#N)c(C(F)(F)F)c1` (stereo not shown) [Example 83, 4-(1-Cyclopropanesulfonyl-4,4-dimethyl-2-oxo-pyrrolidin-3-yloxy)-2-trifluoromethyl-benzonitrile], for which the concentration for half-maximal inhibition (IC50) stood at 50 nM on hAR (setting [2]) and 205 nM on androgen receptor (read-out: IC50).
Turning to `CC1(C)CN(S(=O)(=O)c2ccsc2)C(=O)C1Oc1ccc(C#N)c(C(F)(F)F)c1` (stereo not shown) [Example 84, 4-[4,4-Dimethyl-2-oxo-1-(thiophene-3-sulfonyl)-pyrrolidin-3-yloxy]-2-trifluoromethyl-benzonitrile], the figures for the IC50 at hAR (setting [2]) and against androgen receptor were 85 nM and 55 nM, respectively.
Regarding `Cc1csc(S(=O)(=O)N2CC(C)(C)C(Oc3ccc(C#N)c(C(F)(F)F)c3)C2=O)c1` (stereo not shown) [Example 86, 4-[4,4-Dimethyl-1-(4-methyl-thiophene-2-sulfonyl)-2-oxo-pyrrolidin-3-yloxy]-2-trifluoromethyl-benzonitrile], the IC50 at hAR (setting [1]) came to 140 nM; at androgen receptor (read-out: IC50), 105 nM.
The like results for `Cc1ccsc1S(=O)(=O)N1CC(C)(C)C(Oc2ccc(C#N)c(C(F)(F)F)c2)C1=O` (stereo not shown) [Example 87, 4-[4,4-Dimethyl-1-(3-methyl-thiophene-2-sulfonyl)-2-oxo-pyrrolidin-3-yloxy]-2-trifluoromethyl-benzonitrile] were, in that order, 115 nM and 502 nM.
In the case of `CC1(C)CN(S(=O)(=O)c2cccc(C#N)c2)C(=O)C1Oc1ccc(C#N)c(C(F)(F)F)c1` (stereo not shown) [Example 88, 4-[1-(3-Cyano-benzenesulfonyl)-4,4-dimethyl-2-oxo-pyrrolidin-3-yloxy]-2-trifluoromethyl-benzonitrile], the IC50 turned out to be 110 nM on hAR (setting [1]) and 134 nM at androgen receptor (read-out: IC50).
Consider `CC1(C)CN(S(=O)(=O)c2cccs2)C(=O)C1Oc1ccc(C#N)c(C(F)(F)F)c1` (stereo not shown) [Example 93, 4-[4,4-Dimethyl-2-oxo-1-(thiophene-2-sulfonyl)-pyrrolidin-3-yloxy]-2-trifluoromethyl-benzonitrile], for which the IC50 is 82 nM on hAR (setting [2]) and over 1000 nM on androgen receptor (read-out: IC50).
As for `Cc1ccccc1S(=O)(=O)N1CC(C)(C)C(Oc2ccc(C#N)c(C(F)(F)F)c2)C1=O` (stereo not shown) [Example 94, 4-[4,4-Dimethyl-2-oxo-1-(toluene-2-sulfonyl)-pyrrolidin-3-yloxy]-2-trifluoromethyl-benzonitrile], the IC50 on hAR (setting [1]) was 150 nM; at androgen receptor (read-out: IC50), over 1000 nM.
With `CC1(C)CN(S(=O)(=O)c2cccc(O)c2)C(=O)C1Oc1ccc(C#N)c(C(F)(F)F)c1` (stereo not shown) [Example 95, 4-[1-(3-Hydroxy-benzenesulfonyl)-4,4-dimethyl-2-oxo-pyrrolidin-3-yloxy]-2-trifluoromethyl-benzonitrile], the IC50 at hAR (setting [2]) is 8 nM; on androgen receptor (read-out: IC50), over 1000 nM.
As for `CC1(C)CN(C2CCCC2)C(=O)C1Oc1ccc(C#N)c(C(F)(F)F)c1` (stereo not shown) [Example 98, 4-(1-Cyclopentyl-4,4-dimethyl-2-oxo-pyrrolidin-3-yloxy)-2-trifluoromethyl-benzonitrile], the half-inhibitory concentration (IC50) on hAR (setting [1]) was determined as 169 nM; on androgen receptor (read-out: IC50), 315 nM.
In the case of `CSCN1CC(C)(C)C(Oc2ccc(C#N)c(C(F)(F)F)c2)C1=O` (stereo not shown) [Example 99, 4-(4,4-Dimethyl-1-methylsulfanylmethyl-2-oxo-pyrrolidin-3-yloxy)-2-trifluoromethyl-benzonitrile], the IC50 at hAR (setting [1]) is 113 nM; on androgen receptor, 36 nM.
For the compound `CC1(C)CN(C(=O)Cc2ccccc2)C(=O)C1Oc1ccc(C#N)c(C(F)(F)F)c1` (stereo not shown) [Example 101, 4-(4,4-Dimethyl-2-oxo-1-phenylacetyl-pyrrolidin-3-yloxy)-2-trifluoromethyl-benzonitrile], the IC50 came to 174 nM on hAR (setting [1]) and 83 nM on androgen receptor (read-out: IC50).
Take `CC1(C)CN(C(=O)c2ccc(C#N)cc2)C(=O)C1Oc1ccc(C#N)c(C(F)(F)F)c1` (stereo not shown) [Example 104, 4-[1-(4-Cyano-benzoyl)-4,4-dimethyl-2-oxo-pyrrolidin-3-yloxy]-2-trifluoromethyl-benzonitrile]: the IC50 at hAR (setting [1]) amounted to 248 nM; at androgen receptor, 37 nM.
Turning to `CC1(C)CN(C(=O)c2cccc(C#N)c2)C(=O)C1Oc1ccc(C#N)c(C(F)(F)F)c1` (stereo not shown) [Example 107, 4-[1-(3-Cyano-benzoyl)-4,4-dimethyl-2-oxo-pyrrolidin-3-yloxy]-2-trifluoromethyl-benzonitrile], the concentration for half-maximal inhibition (IC50) is 68 nM at hAR (setting [2]) and 653 nM on androgen receptor (read-out: IC50).
For the compound `COc1cc(OC2C(=O)N(C(C)c3ccccc3)CC2(C)C)ccc1C#N` (stereo not shown) [Example 110, 4-[4,4-Dimethyl-2-oxo-1-(1-phenyl-ethyl)-pyrrolidin-3-yloxy]-2-methoxy-benzonitrile], the IC50 at hAR (setting [2]) was 87 nM; on androgen receptor (read-out: IC50), 126 nM.
On to `CC1(C)CN(Cc2nnc(-c3ccccc3O)o2)C(=O)C1Oc1ccc(C#N)c(C(F)(F)F)c1` (stereo not shown) [Example 112, 4-{1-[5-(2-Hydroxy-phenyl)-[1,3,4]oxadiazol-2-ylmethyl]-4,4-dimethyl-2-oxo-pyrrolidin-3-yloxy}-2-trifluoromethyl-benzonitrile], for which the figures for the IC50 on hAR (setting [2]) and on androgen receptor (read-out: IC50) were 85 nM and 198 nM, respectively.
For the compound `CC1(C)CN(Cc2nnc(-c3cccc(O)c3)o2)C(=O)C1Oc1ccc(C#N)c(C(F)(F)F)c1` (stereo not shown) [Example 113, 4-{1-[5-(3-Hydroxy-phenyl)-[1,3,4]oxadiazol-2-ylmethyl]-4,4-dimethyl-2-oxo-pyrrolidin-3-yloxy)-2-trifluoromethyl-benzonitrile], the IC50 stood at 224 nM on hAR (setting [1]) and 651 nM on androgen receptor (read-out: IC50).
`CC1(C)CN(Cc2nnc(-c3ccc(O)cc3)o2)C(=O)C1Oc1ccc(C#N)c(C(F)(F)F)c1` (stereo not shown) [Example 114, 4-{1-[5-(4-Hydroxy-phenyl)-[1,3,4]oxadiazol-2-ylmethyl]-4,4-dimethyl-2-oxo-pyrrolidin-3-yloxy}-2-trifluoromethyl-benzonitrile]: the IC50 on hAR (setting [2]) is 41 nM; on androgen receptor (read-out: IC50) it was 656 nM.

The IC50 is the concentration needed to halve the response being measured.
